Where only a bound is given, the exact number is not on record here.

Chain of Factor D (P00746 26-253): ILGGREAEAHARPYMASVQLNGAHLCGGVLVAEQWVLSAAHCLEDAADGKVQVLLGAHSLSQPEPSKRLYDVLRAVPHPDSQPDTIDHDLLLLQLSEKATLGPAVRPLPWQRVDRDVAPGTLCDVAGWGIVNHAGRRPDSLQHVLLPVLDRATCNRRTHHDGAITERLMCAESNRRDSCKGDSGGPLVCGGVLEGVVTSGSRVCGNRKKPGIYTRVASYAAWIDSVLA

The target in the test is Factor D (Homo sapiens, UniProt P00746). Put plainly: Factor D esterolytic assay (Z-Lys-SBzl thioester substrate, DTNB, 405 nm). The class given is biochemical. Particulars: substrate Z-Lys-SBzl 1.29 mM, 100 mM HEPES, 500 mM NaCl, pH 7.5, 10% DMSO, tested a minimum of three times. As to the method:
The IC50 value of a compound (i.e., the concentration of the compound that inhibits 50% of the enzymatic activity) was calculated according to the procedure reported in U.S. Pat. No. 6,653,340 B1, e.g., column 74 (incorporated by reference).
Specifically, the compounds were dissolved in a stock solution of DMSO at 10.0 or 100 mM. A portion of this stock solution was added to assay buffer in a final volume of 50 μL. Controls included buffer alone and enzyme solutions to which DMSO was added. Substrate was added to the reaction wells immediately or after incubation at room temperature. The reaction rates were measured spectrophotometrically by the generation of product at 405 nm for 600 sec. Background absorbance at 690 nm was measured and subtracted from the absorbance at 405 nm for each well.
The reaction rate for enzyme alone was compared to the rate of enzyme in the presence of inhibitor and the percent inhibition was calculated as shown below: Percent Inhibition=[Rate without inhibitor−Rate with inhibitor)/(Rate without inhibitor)]−100 Factor D Esterolytic Assay:
An established esterolytic assay for the measurement of Factor D activity and inhibition of Factor D activity was used (Kam, C. M.; McRae, B. J.; Harper, J. W.; Niemann, M. A.; Volanakis, J. E.; Powers, J. C. Human complement proteins D. C2, and B Active site mapping with peptide thioester substrates. J Biol. Chem. 1987, 262, 3444-3451). For this assay Z-Lys-SBzl, 1.29 mM (Kim, S.; Narayana, S. V. L; Volanakis, J. E. Mutational analysis of the substrate binding site of human complement Factor D. Biochemistry, 1994, 33, 14393-14399) was used as the substrate for Factor D ([…]). Hydrolysis of this compound by Factor D liberated a free sulfhydryl group which is then reacted with 5,5′-dithiobis(2-nitrobenzoic acid) producing an intense yellow color (Habeeb, A. F. S. A. Reaction of protein sulfhydryl groups with Ellman's Reagent. Methods in Enzymol. 1976, 25, 457-464). The assays were performed in 96 well microtiter plates and rates of hydrolysis were monitored at 405 nm on a Biotek Synergy H1 plate reader. Hydrolysis rates were reported as change in mOD/min. The assay was conducted in 100 mM HEPES, 500 mM NaCl, pH 7.5 containing 10% DMSO in a final volume of 50 μL per well.
An IC50, a compound concentration which inhibits 50% of the enzymatic activity, was calculated. Compounds in the examples were tested a minimum of three times.
Regarding `N#Cc1cn(CC(=O)N2C[C@H](F)C[C@H]2C(=O)NCc2cccc(Cl)c2F)c2ncnc(N)c12` [Compound 130e, (2S,4R)-1-(2-(4-amino-5-cyano-7H-pyrrolo[2,3-d]pyrimidin-7-yl)acetyl)-N-(3-chloro-2-fluorobenzyl)-4-fluoropyrrolidine-2-carboxamide], the IC50 was in the range of 100 to 1000 nM.
In the case of `Cc1ncc(-c2cc(C)c3c(c2)c2c(N)ncnc2n3CC(=O)N2[C@H](C(=O)Nc3nc(Br)ccc3C)C[C@@]3(C)C[C@@H]23)cn1` [Compound 311a, (1R,3S,5R)-2-(2-(4-amino-8-methyl-6-(2-methylpyrimidin-5-yl)-9H-pyrimido[4,5-b]indol-9-yl)acetyl)-N-(6-bromo-3-methylpyridin-2-yl)-5-methyl-2-azabicyclo[3.1.0]hexane-3-carboxamide], the concentration for half-maximal inhibition (IC50) is less than 100 nM.
In the case of `Cc1cc(C(F)(F)F)cc2c3c(N)ncnc3n(CC(=O)N3[C@@H]4C[C@@H]4C[C@H]3C(=O)Nc3cncc(C(F)(F)F)n3)c12` [Compound 348c, (1R,3S,5R)-2-(2-(4-amino-8-methyl-6-(trifluoromethyl)-9H-pyrimido[4,5-b]indol-9-yl)acetyl)-N-(6-(trifluoromethyl)pyrazin-2-yl)-2-azabicyclo[3.1.0]hexane-3-carboxamide], the IC50 was less than 100 nM.
In the case of `Nc1c(C(=O)O)cnc2c1ccn2CC(=O)N1[C@@H]2C[C@@H]2C[C@H]1C(=O)Nc1cccc(Br)n1` [Compound 155f, 4-amino-1-(2-((1R,3S,5R)-3-((6-bromopyridin-2-yl)carbamoyl)-2-azabicyclo[3.1.0]hexan-2-yl)-2-oxoethyl)-1H-pyrrolo[2,3-b]pyridine-5-carboxylic acid] it was more than 1000 nM.
For `CO[C@H]1C[C@@H](C(=O)Nc2cccc(Br)n2)N(C(=O)Cn2c3ccc(C(F)(F)F)cc3c3c(N)ncnc32)C1` [Compound 247d, (2S,4S)-1-(2-(4-amino-6-(trifluoromethyl)-9H-pyrimido[4,5-b]indol-9-yl)acetyl)-N-(6-bromopyridin-2-yl)-4-methoxypyrrolidine-2-carboxamide], the IC50 lay within 100 to 1000 nM.
For the molecule `Cc1ccnc2c3c(N)ncnc3n(CC(=O)N3[C@H](C(=O)Nc4cccc(Br)n4)C[C@@]4(C)C[C@@H]34)c12` [Compound 283g, (1R,3S,5R)-2-(2-(4-amino-8-methyl-9H-pyrido[2′,3′:4,5]pyrrolo[2,3-d]pyrimidin-9-yl)acetyl)-N-(6-bromopyridin-2-yl)-5-methyl-2-azabicyclo[3.1.0]hexane-3-carboxamide], the concentration for half-maximal inhibition (IC50) was less than 100 nM.
Regarding `Nc1ncnc2c1ncn2CC(=O)N1[C@@H]2C[C@@H]2C[C@H]1C(=O)Nc1cccc(OC(F)(F)F)c1` [Compound 107b, (1R,3S,5R)-2-(2-(6-amino-9H-purin-9-yl)acetyl)-N-(3-(trifluoromethoxy)phenyl)-2-azabicyclo[3.1.0]hexane-3-carboxamide], the concentration for half-maximal inhibition (IC50) is more than 1000 nM.
Take `Nc1ncnc2c1c(-c1cccc3cc[nH]c13)cn2CC(=O)N1C[C@H](F)C[C@H]1C(=O)NCc1cccc(Cl)c1F` [Compound 134b, (2S,4R)-1-(2-(4-amino-5-(1H-indol-7-yl)-7H-pyrrolo[2,3-d]pyrimidin-7-yl)acetyl)-N-(3-chloro-2-fluorobenzyl)-4-fluoropyrrolidine-2-carboxamide]: the concentration for half-maximal inhibition (IC50) was less than 100 nM.
As for `Cc1cc(O)cc2c3c(N)ncnc3n(CC(=O)N3[C@@H]4C[C@@H]4C[C@H]3C(=O)Nc3cccc(Br)n3)c12` [Compound 282a, (1R,3S,5R)-2-(2-(4-amino-6-hydroxy-8-methyl-9H-pyrimido[4,5-b]indol-9-yl)acetyl)-N-(6-bromopyridin-2-yl)-2-azabicyclo[3.1.0]hexane-3-carboxamide], the 50% inhibitory concentration (IC50) is less than 100 nM.
On to `C[C@@]12C[C@@H](C(=O)Nc3cccc(Br)n3)N(C(=O)Cn3c4ccc(C(F)(F)F)nc4c4c(N)ncnc43)[C@@H]1C2` [Compound 231g, (1R,3S,5R)-2-(2-(4-amino-6-(trifluoromethyl)-9H-pyrido[2′,3′:4,5]pyrrolo[2,3-d]pyrimidin-9-yl)acetyl)-N-(6-bromopyridin-2-yl)-5-methyl-2-azabicyclo[3.1.0]hexane-3-carboxamide], for which the concentration for half-maximal inhibition (IC50) is less than 100 nM.
The figure for `C[C@@]12C[C@@H](C(=O)Nc3cccc(Br)n3)N(C(=O)Cn3c4ncnc(N)c4c4cc(Br)cc(F)c43)[C@@H]1C2` [Compound 377a, (1R,3S,5R)-2-(2-(4-amino-6-bromo-8-fluoro-9H-pyrimido[4,5-b]indol-9-yl)acetyl)-N-(6-bromopyridin-2-yl)-5-methyl-2-azabicyclo[3.1.0]hexane-3-carboxamide] is less than 100 nM; for `Nc1ncnc2c1c1cc(C(F)(F)F)ccc1n2CC(=O)N1C[C@H](F)C[C@H]1C(=O)Nc1cccc(Cl)n1` [Compound 246b, (2S,4R)-1-(2-(4-amino-6-(trifluoromethyl)-9H-pyrimido[4,5-b]indol-9-yl)acetyl)-N-(6-chloropyridin-2-yl)-4-fluoropyrrolidine-2-carboxamide] it is less than 100 nM; for `Nc1ncnc2c1c1cc(C(=O)O)ccc1n2CC(=O)N1[C@@H]2C[C@@H]2C[C@H]1C(=O)Nc1cccc(Br)n1` [Compound 44a, 4-amino-9-(2-((1R,3S,5R)-3-((6-bromopyridin-2-yl)carbamoyl)-2-azabicyclo[3.1.0]hexan-2-yl)-2-oxoethyl)-9H-pyrimido[4,5-b]indole-6-carboxylic acid] it is less than 100 nM.
Consider `C[C@@]12C[C@@H](C(=O)Nc3cccc(Br)n3)N(C(=O)Cn3c4ccccc4c4c(N)ncnc43)[C@@H]1C2` [Compound 9a, (1R,3S,5R)-2-(2-(4-amino-9H-pyrimido[4,5-b]indol-9-yl)acetyl)-N-(6-bromopyridin-2-yl)-5-methyl-2-azabicyclo[3.1.0]hexane-3-carboxamide], for which the IC50 was less than 100 nM.
With `Nc1nc(N)c2ncn(CC(=O)N3[C@@H]4C[C@@H]4C[C@H]3C(=O)Nc3cccc(Br)n3)c2n1` [Compound 92b, (1R,3S,5R)—N-(6-bromopyridin-2-yl)-2-(2-(2,6-diamino-9H-purin-9-yl)acetyl)-2-azabicyclo[3.1.0]hexane-3-carboxamide], the IC50 is more than 1000 nM.
`Cc1cc(C(F)(F)F)cc2c3c(N)ncnc3n(CC(=O)N3C[C@](C)(F)C[C@H]3C(=O)Nc3cccc(Br)n3)c12` [Compound 304a, (2S,4R)-1-(2-(4-amino-8-methyl-6-(trifluoromethyl)-9H-pyrimido[4,5-b]indol-9-yl)acetyl)-N-(6-bromopyridin-2-yl)-4-fluoro-4-methylpyrrolidine-2-carboxamide]: the IC50 is less than 100 nM.
In the case of `COc1cccc(NC(=O)[C@@H]2C[C@H]3C[C@H]3N2C(=O)Cn2cnc3c(N)ncnc32)c1F` [Compound 108b, (1R,3S,5R)-2-(2-(6-amino-9H-purin-9-yl)acetyl)-N-(2-fluoro-3-methoxyphenyl)-2-azabicyclo[3.1.0]hexane-3-carboxamide] it was more than 1000 nM; in that of `C[C@@]12C[C@@H](C(=O)Nc3cccc(Br)n3)N(C(=O)Cn3c4ccc([N+](=O)[O-])cc4c4c(N)ncnc43)[C@@H]1C2` [Compound 202a, (1R,3S,5R)-2-(2-(4-amino-6-nitro-9H-pyrimido[4,5-b]indol-9-yl)acetyl)-N-(6-bromopyridin-2-yl)-5-methyl-2-azabicyclo[3.1.0]hexane-3-carboxamide], less than 100 nM.
Take `Nc1ncnc2c1c1cccc(C(F)(F)F)c1n2CC(=O)N1[C@@H]2C[C@@H]2C[C@H]1C(=O)Nc1cccc(Br)n1` [Compound 174g, (1R,3S,5R)-2-(2-(4-amino-8-(trifluoromethyl)-9H-pyrimido[4,5-b]indol-9-yl)acetyl)-N-(6-bromopyridin-2-yl)-2-azabicyclo[3.1.0]hexane-3-carboxamide]: the IC50 is more than 1000 nM.
In the case of `Cc1cc(F)c(Br)nc1NC(=O)[C@@H]1C[C@@]2(C)C[C@H]2N1C(=O)Cn1c2ncnc(N)c2c2cc(C(F)(F)F)cc(C)c21` [Compound 333c, (1R,3S,5R)-2-(2-(4-amino-8-methyl-6-(trifluoromethyl)-9H-pyrimido[4,5-b]indol-9-yl)acetyl)-N-(6-bromo-5-fluoro-3-methylpyridin-2-yl)-5-methyl-2-azabicyclo[3.1.0]hexane-3-carboxamide], the IC50 was less than 100 nM.
Turning to `Cc1cc(C(F)(F)F)cc2c3c(N)ncnc3n(CC(=O)N3[C@H](C(=O)Nc4cccc(Br)n4)C[C@@]4(C)C[C@@H]34)c12` [Compound 184g, (1R,3S,5R)-2-(2-(4-amino-8-methyl-6-(trifluoromethyl)-9H-pyrimido[4,5-b]indol-9-yl)acetyl)-N-(6-bromopyridin-2-yl)-5-methyl-2-azabicyclo[3.1.0]hexane-3-carboxamide], the IC50 was less than 100 nM.

A word on the IC50: it is the concentration that inhibits the measured activity by half.
